According to patent US4308276A, “Inhibiting lipogenesis with benzoxathiincarboxamides” (Shell Oil Company, priority 1978, dated 1981):

System: swine adipose tissue
Experiment: Inhibition of lipogenesis (uptake of radioactive carbon from glucose-U^14 C into lipid) in swine adipose tissue slices
Type: cell-based
Details: 100 micrograms per milliliter, 37° C., 2 hours, 5% DMSO, with insulin, triplicate
Description: The manner in which they cause this effect is not known with certainty; it is believed that they interfere with the synthesis of fatty acids in the tissues. Their effectiveness for this purpose has been ascertained by immersing samples of swine adipose tissue in a liquid medium containing radioactive glucose and the test chemical for a period of time, then isolating the lipid from the treated tissue and determining the up-take of the radioactive carbon by means of scintillation counting techniques. These tests were conducted in swine adipose tissue because in swine, the primary site of lipogenesis--i.e., fatty acid synthesis--appears to be adipose tissue.
Described in more detail, the tests were conducted according to the following general procedure.
150 milligrams of slices of swine adipose tissue were incubated at 37° C. for 2 hours with shaking in 3 milliliters of Krebs-Ringer bicarbonate solution containing one-half the normal calcium ion concentration, 60 micromoles of glucose, 0.5 micro-Curie of glucose-U^14 C, and 300 microunits of insulin, and 5% dimethyl sulfoxide (DMSO). The test compounds were added as a solution or suspension in DMSO and were present at a concentration of 100 micrograms per milliliter of the incubation mixture.
The incubation was terminated by addition of 0.25 milliliter of 1 N sulfuric acid. The resulting mixture was extracted with a total of 25 milliliters of chloroform:methanol (2:1, v/v). The extracts were washed according to Folch et al. (J. Biol. Chem., 226, 497-509, (1957)), air dried, and counted in a liquid scintillation counter with 15 milliliters of counting fluid (two parts toluene containing 0.4% w/v New England Nuclear Omnifluor: 1 part Triton X-100). The tests were conducted in triplicate and were accompanied by control tests in which all ingredients,proportions and conditions were the same except that no test compound was included. From the data obtained were calculated the percent inhibition of lipid synthesis by the test compound in each case. The data obtained from the tests are set out in Table 1, as the percent inhibition of lipogenesis compared to the results obtained in the control tests wherein only the test compound was omitted.

Row | Compound | Percent Inhibition (of lipogenesis compared to control tests) [%]
1 | C=CCNC(=O)C1CSc2ccccc2O1 (centres unmarked) [Compound 1, 2,3-Dihydro-N-(2-propenyl)-1,4-benzoxathiin-2-carboxamide] | 63
2 | C=CCNC(=O)C1CSc2cc(C)ccc2O1 (centres unmarked) [Compound 2, 2,3-Dihydro-6-methyl-N-(2-propenyl)-1,4-benzoxathiin-2-carboxamide] | 63
3 | C=CCNC(=O)C1CSc2cc(Cl)ccc2O1 (centres unmarked) [Compound 3, 6-Chloro-2,3-dihydro-N-(2-propenyl)-1,4-benzoxathiin-2-carboxamide] | 54
4 | C=CCNC(=O)C1CSc2cc(C(F)(F)F)ccc2O1 (centres unmarked) [Compound 4, 6-(Trifluoromethyl)-2,3-dihydro-N-(2-propenyl)-1,4-benzoxathiin-2-carboxamide] | 30
5 | C=CCNC(=O)C1CSc2cc([N+](=O)[O-])ccc2O1 (centres unmarked) [Compound 5, 6-Nitro-2,3-dihydro-N-(2-propenyl)-1,4-benzoxathiin-2-carboxamide] | 45
6 | C=CCNC(=O)C1CSc2cc(N)ccc2O1 (centres unmarked) [Compound 6, 6-Amino-2,3-dihydro-N-(2-propenyl)-1,4-benzoxathiin-2-carboxamide] | 29
7 | C=CCNC(=O)C1CSc2cc(NS(C)(=O)=O)ccc2O1 (centres unmarked) [Compound 7, 6-Methylsulfonamido-3,4-dihydro-N-(2-propenyl)-1,4-benzoxathiin-2-carboxamide] | 46
8 | C=CCNC(=O)C1CSc2ccc(C)cc2O1 (centres unmarked) [Compound 8, 2,3-Dihydro-7-methyl-N-(2-propenyl)-1,4-benzoxathiin-2-carboxamide] | 26
